In the experiment the target is T1, human natriuretic peptide receptor 2 (hNPR2) (Homo sapiens, UniProt P20594).
T1 construct: expressed in transfected cells; host or cells: HEK293 (ATCC CRL-1573), clone 35, co-transfected with pGloSensor-42F
T1 sequence (P20594 23-1047): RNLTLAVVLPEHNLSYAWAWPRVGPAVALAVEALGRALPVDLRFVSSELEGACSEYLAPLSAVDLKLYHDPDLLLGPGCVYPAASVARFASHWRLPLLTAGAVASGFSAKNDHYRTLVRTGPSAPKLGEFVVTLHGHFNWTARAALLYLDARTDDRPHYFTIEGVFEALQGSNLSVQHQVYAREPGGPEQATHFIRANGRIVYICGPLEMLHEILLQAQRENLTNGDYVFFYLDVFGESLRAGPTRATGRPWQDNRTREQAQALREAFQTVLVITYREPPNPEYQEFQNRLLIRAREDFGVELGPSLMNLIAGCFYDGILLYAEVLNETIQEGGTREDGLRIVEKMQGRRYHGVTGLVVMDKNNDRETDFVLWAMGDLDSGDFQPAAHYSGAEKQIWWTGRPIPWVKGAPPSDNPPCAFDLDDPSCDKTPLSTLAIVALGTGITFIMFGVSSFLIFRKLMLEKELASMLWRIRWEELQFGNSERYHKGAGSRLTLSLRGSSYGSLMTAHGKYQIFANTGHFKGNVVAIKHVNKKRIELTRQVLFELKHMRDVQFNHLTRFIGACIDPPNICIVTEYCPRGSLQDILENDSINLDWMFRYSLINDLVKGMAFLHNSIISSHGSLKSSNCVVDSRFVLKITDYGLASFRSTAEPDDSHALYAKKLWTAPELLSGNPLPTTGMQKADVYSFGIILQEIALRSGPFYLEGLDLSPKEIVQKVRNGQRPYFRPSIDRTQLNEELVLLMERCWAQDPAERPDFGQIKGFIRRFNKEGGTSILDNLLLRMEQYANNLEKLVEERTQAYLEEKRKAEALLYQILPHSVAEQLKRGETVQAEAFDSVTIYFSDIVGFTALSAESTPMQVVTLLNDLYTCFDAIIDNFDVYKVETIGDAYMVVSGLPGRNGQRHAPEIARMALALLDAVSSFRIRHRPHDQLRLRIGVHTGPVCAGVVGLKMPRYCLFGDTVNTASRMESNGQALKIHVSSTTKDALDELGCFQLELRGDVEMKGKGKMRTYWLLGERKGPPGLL
As to the kind of experiment: In vitro hNPR2 activity assay (cGMP GloSensor reporter, HEK293). The experiment is classed as cell-based. Particulars: potency relative to CNP22 (0065). The procedure, abridged:
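Potency is the EC50 from a four-parameter logistic fit, also expressed relative to the in-plate CNP22 control (×100), with at least two replicates. Compounds (ten concentrations, […], HSA-free diluent with 1% OVA, 0.01% Tween20) were incubated 30 min at 37 °C on HEK293 cells co-expressing hNPR2 and a GloSensor cGMP luciferase. Luminescence detected with Bright-Glo.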

Starred links: 1 amine or outer side, 2 acyl side, 3 side chain; linkers in the order of their positions; H or OH if unused. Positions of bridges follow the written chain, without caps; N, C: chain ends. Residues, ends and D or L forms follow the SMILES beside them. *: point of attachment. C18 diacid = O=C(O)CCCCCCCCCCCCCCCCC(=O)*; γGlu = O=C(O)[C@H](CCC(=O)[*:2])N[*:1]; AEEA = NCCOCCOCC(=O)O

For `CC[C@H](C)[C@@H]1NC(=O)[C@H](CCCNC(=N)N)NC(=O)[C@H](CC(=O)O)NC(=O)[C@H](CC(C)C)NC(=O)[C@@H]2CCCN2C(=O)[C@H](CC(C)C)NC(=O)CNC(=O)[C@H](Cc2ccccc2)NC(=O)[C@@H](NC(=O)CNC(=O)[C@H](CO)NC(=O)[C@H](CO)NC(=O)[C@H](CC(C)C)NC(=O)CNC(=O)[C@H](CCCCN)NC(=O)[C@H](CCCCN)NC(=O)[C@H](CCC(N)=O)NC(=O)[C@H](C)NC(=O)CNC(=O)[C@H](Cc2c[nH]cn2)NC(=O)[C@H](CCC(=O)O)NC(=O)COCCOCCNC(=O)COCCOCCNC(=O)CC[C@H](NC(=O)CCCCCCCCCCCCCCCCC(=O)O)C(=O)O)CSSC[C@@H](C(=O)O)NC(=O)CNC(=O)[C@H](CC(C)C)NC(=O)CNC(=O)[C@H](CO)NC(=O)[C@H](CC(C)C)NC(=O)[C@H](CO)NC(=O)CNC1=O` [compound 1310] ({C18 diacid-γGlu-AEEA-AEEA}-EHGAQKKGLSSGCFGLPLDRIGSLSGLGC-OH; disulfide 13-29), the “hNPR2 0% HSA. [EC50% rel CNP]” value was 10.4%.
`CC[C@H](C)[C@@H]1NC(=O)[C@H](CCCNC(=N)N)NC(=O)[C@H](CC(=O)O)NC(=O)[C@H](CC(C)C)NC(=O)[C@@H]2CCCN2C(=O)[C@H](CC(C)C)NC(=O)CNC(=O)[C@H](Cc2ccccc2)NC(=O)[C@@H](NC(=O)CNC(=O)[C@H](CO)NC(=O)[C@H](CO)NC(=O)[C@@H](NC(=O)CNC(=O)[C@@H](NC(=O)[C@H](Cc2c[nH]cn2)NC(=O)[C@H](CCC(N)=O)NC(=O)[C@H](C)NC(=O)CNC(=O)[C@H](Cc2c[nH]cn2)NC(=O)[C@H](Cc2ccc(O)cc2)NC(=O)[C@H](CCCCN)NC(=O)[C@H](CCCNC(=N)N)NC(=O)[C@H](C)NC(=O)COCCOCCNC(=O)COCCOCCNC(=O)CC[C@H](NC(=O)CCCCCCCCCCCCCCCCC(=O)O)C(=O)O)[C@@H](C)O)C(C)C)CSSC[C@@H](C(=O)O)NC(=O)CNC(=O)[C@H](CC(C)C)NC(=O)CNC(=O)[C@H](CO)NC(=O)[C@H](CC(C)C)NC(=O)[C@H](CO)NC(=O)CNC1=O` [compound 1351] ({C18 diacid-γGlu-AEEA-AEEA}-ARKYHGAQHTGVSSGCFGLPLDRIGSLSGLGC-OH; disulfide 16-32): the “hNPR2 0% HSA. [EC50% rel CNP]” value was 55.2%.
The result for `CC[C@H](C)[C@@H]1NC(=O)[C@H](CCCNC(=N)N)NC(=O)[C@H](CC(=O)O)NC(=O)[C@H](CC(C)C)NC(=O)[C@@H]2CCCN2C(=O)[C@H](CC(C)C)NC(=O)CNC(=O)[C@H](Cc2ccccc2)NC(=O)[C@@H](NC(=O)CNC(=O)[C@H](CO)NC(=O)[C@H](CO)NC(=O)[C@@H](NC(=O)CNC(=O)[C@@H](NC(=O)[C@H](CCCCN)NC(=O)[C@H](CCC(N)=O)NC(=O)[C@H](C)NC(=O)CNC(=O)[C@H](Cc2c[nH]cn2)NC(=O)[C@H](Cc2ccc(O)cc2)NC(=O)COCCOCCNC(=O)COCCOCCNC(=O)COCCOCCNC(=O)CC[C@H](NC(=O)CCCCCCCCCCCCCCCCC(=O)O)C(=O)O)[C@@H](C)O)C(C)C)CSSC[C@@H](C(=O)O)NC(=O)CNC(=O)[C@H](CC(C)C)NC(=O)CNC(=O)[C@H](CO)NC(=O)[C@H](CC(C)C)NC(=O)[C@H](CO)NC(=O)CNC1=O` [compound 1352] ({C18 diacid-γGlu-AEEA-AEEA-AEEA}-YHGAQKTGVSSGCFGLPLDRIGSLSGLGC-OH; disulfide 13-29) reads 38.6%; that for `CC[C@H](C)[C@@H]1NC(=O)[C@H](CCCNC(=N)N)NC(=O)[C@H](CC(=O)O)NC(=O)[C@H](CC(C)C)NC(=O)[C@@H]2CCCN2C(=O)[C@H](CC(C)C)NC(=O)CNC(=O)[C@H](Cc2ccccc2)NC(=O)[C@@H](NC(=O)CNC(=O)[C@H](CO)NC(=O)[C@H](CO)NC(=O)[C@@H](NC(=O)CNC(=O)[C@@H](NC(=O)[C@H](CCCCN)NC(=O)[C@H](CCC(N)=O)NC(=O)[C@H](C)NC(=O)CNC(=O)[C@H](Cc2c[nH]cn2)NC(=O)[C@H](Cc2ccc(O)cc2)NC(=O)[C@H](CCCCN)NC(=O)[C@H](CCCNC(=N)N)NC(=O)[C@H](C)NC(=O)COCCOCCNC(=O)COCCOCCNC(=O)CC[C@H](NC(=O)CC[C@H](NC(=O)CCCCCCCCCCCCCCCCC(=O)O)C(=O)O)C(=O)O)[C@@H](C)O)C(C)C)CSSC[C@@H](C(=O)O)NC(=O)CNC(=O)[C@H](CC(C)C)NC(=O)CNC(=O)[C@H](CO)NC(=O)[C@H](CC(C)C)NC(=O)[C@H](CO)NC(=O)CNC1=O` [compound 1354] ({C18 diacid-γGlu-γGlu-AEEA-AEEA}-ARKYHGAQKTGVSSGCFGLPLDRIGSLSGLGC-OH; disulfide 16-32), 27.5%; that for `CC[C@H](C)[C@@H]1NC(=O)[C@H](CCCNC(=N)N)NC(=O)[C@H](CC(=O)O)NC(=O)[C@H](CC(C)C)NC(=O)[C@@H]2CCCN2C(=O)[C@H](CC(C)C)NC(=O)CNC(=O)[C@H](Cc2ccccc2)NC(=O)[C@@H](NC(=O)CNC(=O)[C@H](CO)NC(=O)[C@H](CO)NC(=O)[C@H](CC(C)C)NC(=O)CNC(=O)[C@H](CCCCN)NC(=O)[C@H](CCCCN)NC(=O)[C@H](CCC(N)=O)NC(=O)[C@H](C)NC(=O)CNC(=O)[C@H](CCCCN)NC(=O)[C@H](Cc2ccc(O)cc2)NC(=O)COCCOCCNC(=O)COCCOCCNC(=O)COCCOCCNC(=O)CC[C@H](NC(=O)CC[C@H](NC(=O)CCCCCCCCCCCCCCCCC(=O)O)C(=O)O)C(=O)O)CSSC[C@@H](C(=O)O)NC(=O)CNC(=O)[C@H](CC(C)C)NC(=O)CNC(=O)[C@H](CO)NC(=O)[C@H](CC(C)C)NC(=O)[C@H](CO)NC(=O)CNC1=O` [compound 1356] ({C18 diacid-γGlu-γGlu-AEEA-AEEA-AEEA}-YKGAQKKGLSSGCFGLPLDRIGSLSGLGC-OH; disulfide 13-29; C-terminus assumed), 22.4%.
The figure for `CC[C@H](C)[C@@H]1NC(=O)[C@H](CCCNC(=N)N)NC(=O)[C@H](CC(=O)O)NC(=O)[C@H](CC(C)C)NC(=O)[C@@H]2CCCN2C(=O)[C@H](CC(C)C)NC(=O)CNC(=O)[C@H](Cc2ccccc2)NC(=O)[C@@H](NC(=O)CNC(=O)[C@H](CCCCN)NC(=O)[C@H](CO)NC(=O)[C@H](CC(C)C)NC(=O)CNC(=O)[C@H](CCCCN)NC(=O)[C@H](CCCCN)NC(=O)[C@H](CCC(N)=O)NC(=O)[C@H](C)NC(=O)CNC(=O)[C@H](CCC(=O)O)NC(=O)[C@H](Cc2ccc(O)cc2)NC(=O)COCCOCCNC(=O)COCCOCCNC(=O)COCCOCCNC(=O)COCCOCCNC(=O)CC[C@H](NC(=O)CCCCCCCCCCCCCCCCC(=O)O)C(=O)O)CSSC[C@@H](C(=O)O)NC(=O)CNC(=O)[C@H](CC(C)C)NC(=O)CNC(=O)[C@H](CO)NC(=O)[C@H](CC(C)C)NC(=O)[C@H](CO)NC(=O)CNC1=O` [compound 1375] ({C18 diacid-γGlu-AEEA-AEEA-AEEA-AEEA}-YEGAQKKGLSKGCFGLPLDRIGSLSGLGC-OH; disulfide 13-29; C-terminus assumed) is 16.2%; for `CC[C@H](C)[C@@H]1NC(=O)[C@H](CCCNC(=N)N)NC(=O)[C@H](CC(=O)O)NC(=O)[C@H](CC(C)C)NC(=O)[C@@H]2CCCN2C(=O)[C@H](CC(C)C)NC(=O)CNC(=O)[C@H](Cc2ccccc2)NC(=O)[C@@H](NC(=O)CNC(=O)[C@H](CCCCN)NC(=O)[C@H](CO)NC(=O)CNC(=O)CNC(=O)[C@H](CCCCN)NC(=O)[C@H](CCCCN)NC(=O)[C@H](CCC(N)=O)NC(=O)[C@H](C)NC(=O)CNC(=O)[C@H](CCC(=O)O)NC(=O)[C@H](Cc2ccc(O)cc2)NC(=O)COCCOCCNC(=O)COCCOCCNC(=O)CC[C@H](NC(=O)CCCCCCCCCCCCCCCCC(=O)O)C(=O)O)CSSC[C@@H](C(=O)O)NC(=O)CNC(=O)[C@H](CC(C)C)NC(=O)CNC(=O)[C@H](CO)NC(=O)[C@H](CC(C)C)NC(=O)[C@H](CO)NC(=O)CNC1=O` [compound 1377] ({C18 diacid-γGlu-AEEA-AEEA}-YEGAQKKGGSKGCFGLPLDRIGSLSGLGC-OH; disulfide 13-29) it is 28.2%.

Source of the values: patent publication US20240209028A1, “CNP COMPOUNDS” (priority 2022, published 2024).
